Experimental data published in US10197563B2, “3-D in vitro model for breast cancer dormancy” (New Jersey Institute of Technology, priority 2015, dated 2019).

Legend:
MDA-MB-231 cells [1] = assay: Carboplatin cytotoxicity, trypan blue test; type: cell-based
Description: (§1) For determination of cell viability, treated as well as non-treated cells were used. MDA-MB-231 and T47D cells were seeded in T-175 tissue culture flasks. At 80% confluency, the growth media was replaced with fresh media containing different concentrations of carboplatin for 48 and 72 h. All experiments were repeated twice. After treatment, the culture media was collected in a 50 ml centrifugation tube, since it might contain dead cells necessary for cell counts. The cell monolayer was washed with PBS and then collected in the same tube. Cells were treated with Trypsin and, Trypsin with the cells was collected in the same 50 ml tube. The suspension was centrifuged (5 min, 1200 rpm) and the supernatant removed. The pellet was washed with PBS, centrifuged (5 min, 1200 rpm) and re-suspended again in complete culture media. Then, a small aliquot of the cell suspension (25 μl) was mixed with the same volume of 0.4% trypan blue (Sigma) solution and the sample was counted after 2 min of staining using a haemocytometer. The number of bright (viable) cells and blue cells (non-viable) were evaluated using a light microscope with a 20-fold magnification. After counting, the cell viability (CV) was expressed as the percentage of surviving cells compared to the total number of cells: CV=(viable cells/total number of cells)×100.
(§2) The concentrations of drugs that were finally toxic to at least 50% of the cell population (IC50/cytotoxicity) were determined. Then, studies were performed looking at viability over the full range of carboplatin concentrations and compared to non-treated BCCs. At day 3-post treatment, viable resistant BCCs were selected and counted using standard protocols for downstream experiments on scaffolds.

T47D cells [2] = assay: Carboplatin cytotoxicity, trypan blue test; type: cell-based
Description: as §1, §2

[3] = test system: MDA-MB-231 and T47D cells; assay: Western blots of breast cancer cell lines with increasing carboplatin dosage; type: cell-based; conditions: with increased carboplatin concentration
Description: Western blot was performed to detect the following proteins: Bax, Bcl-2, Oct-4 and Sox-2 for BCCs on scaffolds. Briefly, whole cell extracts were prepared with the NP-40 buffer and nuclear/cytoplasmic extracts with NE-PER Nuclear and Cytoplasmic Extraction kit. BCC extracts (20 μg) were subjected to electrophoresis on 4-20% SDS-PAGE (Bio-Rad; Hercules, Calif.). Proteins were transferred to PVDF membranes, and membranes were incubated overnight in the respective primary antibodies. This was followed by 2 h incubation with HRP-conjugated secondary antibodies at 1:2000 final dilutions. The latter was detected with chemiluminescence. Membranes were stripped with Restore Western Blot Stripping Buffer and then re-probed for other proteins, including β-actin mAb (1:4000 dilution). All bands were normalized to β-actin.

MDA-MB-231 cells [4] = assay: Carboplatin survival curve for chemotherapy treated and non-treated cells; type: cell-based; conditions: for percent viability: 220 μg/ml carboplatin
Description: as §1, §2

MDA-MB-231 cells [5] = assay: Morphology of cells post addition of carboplatin; type: cell-based
Source text: For these studies carboplatin sensitivity of MDA-MB-231 cells was investigated as previously mentioned. Different subpopulations were obtained for subsequent studies on scaffolds. Under normal condition, BCCs population in culture can be seen to be composed of a heterogeneous population of giant multi-nucleated cells mixed with small single-nucleated cells (FIGS. 38a and b.). […] Therefore, cells at 3-4 days post treatment were selected as being carboplatin resistant MDA-MB-231 cells.

T47D cells [6] = assay: Flow cytometry of CD44/CD24 expression of carboplatin treated cells; type: cell-based
MDA-MB-231 cells [7] = conditions: treated cells
[8] = 2 days post treatment, maximum carboplatin concentration of 50 μg/ml
[9] = 3 days post treatment, 50 μg/ml carboplatin

N.N.O=C([O-])C1(C(=O)[O-])CCC1.[Pt+2] [carboplatin]
death (MDA-MB-231 cells [1]; [8]): 17% | death (MDA-MB-231 cells [1]; [9]): 25% | death (T47D cells [2]; [8]): 28% | death (T47D cells [2]; [9]): 48% | Bcl-2 expression [3]: increased | Oct-4 expression [3]: increased | Sox2 expression [3]: increased | difference in percent viability between non-treated and treated cells (MDA-MB-231 cells [4]; 0 to 100 μg/ml carboplatin): no significant difference | percent viability (MDA-MB-231 cells [4]; chemo-treated cells): 80% | percent viability (MDA-MB-231 cells [4]; non-treated cells): 20% | decrease in percent viability (MDA-MB-231 cells [4]; non-treated cells, 100 to 120 μg/ml carboplatin): 30% | decrease in percent viability (MDA-MB-231 cells [4]; non-treated cells, 140 to 170 μg/ml carboplatin): 40% | decrease in percent viability (MDA-MB-231 cells [4]; non-treated cells, 170 to 220 μg/ml carboplatin): 80% | decrease in percent viability (MDA-MB-231 cells [4]; treated (chemoresistant) cells, 100 to 120 μg/ml carboplatin): 10% | decrease in percent viability (MDA-MB-231 cells [4]; treated (chemoresistant) cells, 140 to 170 μg/ml carboplatin): 20% | decrease in percent viability (MDA-MB-231 cells [4]; treated (chemoresistant) cells, 170 to 220 μg/ml carboplatin): 20% | cell morphology (MDA-MB-231 cells [5]; 7 days post carboplatin treatment): fragmented and appeared to be dying | giant multi-nucleated cells in culture (MDA-MB-231 cells [5]; several hours post treatment with carboplatin): no longer present | CD44^+/CD24^+ cells (T47D cells [6]): 29% | CD44^+/CD24^− cells (T47D cells [6]): 0.01% | CD44^−/CD24^− cells (T47D cells [6]): 0.99% | CD44^−/low/CD24^+ cells (T47D cells [6]): 70% | CD44^+/CD24^+ cells (MDA-MB-231 cells [7]): 81.4% | CD44^+/CD24^− cells (MDA-MB-231 cells [7]): 18% | CD44^−/CD24^+ cells (MDA-MB-231 cells [7]): 0.09% | CD44^−/CD24^− cells (MDA-MB-231 cells [7]): 0.51%
